Reference: patent US4376125A, “Aminobenzlpropranolol and pharmaceutical preparation thereof” (University of Virginia Alumni Patents Foundation, priority 1980, dated 1983)
Like-named read-outs stand apart in the source and are kept apart here.

Tests used:
β-adrenergic receptors [1] = biological target: T1, β-adrenergic receptors (Rattus norvegicus, UniProt P18090); assay: Equilibrium saturation binding of (125I)-iodohydroxybenzylpindolol in treated and washed C6 glioma cells
T1 construct: β-adrenergic receptors in intact living cells; endogenous in cells; host or cells: C6 rat glioma cells, 2B subclone
T1 sequence (P18090 whole entry): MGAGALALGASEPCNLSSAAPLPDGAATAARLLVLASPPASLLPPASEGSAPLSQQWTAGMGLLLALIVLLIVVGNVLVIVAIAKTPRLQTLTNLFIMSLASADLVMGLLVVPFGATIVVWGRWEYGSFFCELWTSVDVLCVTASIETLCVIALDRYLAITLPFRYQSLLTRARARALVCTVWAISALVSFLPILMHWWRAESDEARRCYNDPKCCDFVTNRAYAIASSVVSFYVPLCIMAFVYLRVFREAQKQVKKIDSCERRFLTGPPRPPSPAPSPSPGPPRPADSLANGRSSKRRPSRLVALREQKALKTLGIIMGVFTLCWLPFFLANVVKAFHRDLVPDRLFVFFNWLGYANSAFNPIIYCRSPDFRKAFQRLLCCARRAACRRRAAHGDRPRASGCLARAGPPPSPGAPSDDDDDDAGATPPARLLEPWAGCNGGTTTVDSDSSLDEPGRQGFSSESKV
From the text: All washing experiments involving glioma cells utilized this salt solution as the wash medium.
It would be predicted that the occupation of a receptor by a specific ligand should be considered as an effective loss of that receptor provided that the ligand dissociates sufficiently slowly or not at all. […] For all data points, n=3.

β-adrenergic receptors [2] = biological target: T1, β-adrenergic receptors; assay: Displacement of specific (125I)-iodohydroxybenzylpindolol binding, acute or after washing, in intact C6 rat glioma cells
Experimental: For the study involving glioma cells, C6 rat glioma cells, 2B subclone were grown in monolayer cultures by the technique described by Terasaki et al, J. Biol. Chem., 253, 5418-5425 in 16 mm plastic cluster dishes. In all experiments, the cells were changed from Ham's F-10 containing 10% fetal bovine serum growth medium to a simple salt medium containing 130 mM NaCl, 4 mM KCl, 0.6 mM MgSO4, 0.3 mM CaCl2, 5 mM sodium phosphate buffer (pH 7.4). All washing experiments involving glioma cells utilized this salt solution as the wash medium.
In other test plates, the cells were pretreated with aminobenzylpropranolol blocking agent and then washed repeatedly over a period of 3 hours at 37° C. before determination of [^125 I]-iodohydroxybenzylpindolol binding. For all points, n=3, which means that each data point is an average of three separate determinations. […] (This value was corrected for competition by (^125 I)-iodohydroxybenzylpindolol).

[3] = test system: intracellular cyclic AMP in isoproterenol-treated glioma cells (β-adrenergic receptors); assay: Isoproterenol-stimulated intracellular cyclic AMP accumulation in pretreated, washed C6 glioma cells; type: cell-based, rat; details: for increase of apparent activation constant for isoproterenol: 40 minutes, then washed 3 hours at 37° C.
Experimental: The ability of the present β-adrenergic receptor blocking compound to function as an effective β-adrenergic blocking agent for the selective elimination of cellular β-adrenergic receptors is apparent from the following study on the interaction of aminobenzylpropranolol with glioma cells and mammalian atrium cells. For the study involving glioma cells, C6 rat glioma cells, 2B subclone were grown in monolayer cultures by the technique described by Terasaki et al, J. Biol. Chem., 253, 5418-5425 in 16 mm plastic cluster dishes. In all experiments, the cells were changed from Ham's F-10 containing 10% fetal bovine serum growth medium to a simple salt medium containing 130 mM NaCl, 4 mM KCl, 0.6 mM MgSO4, 0.3 mM CaCl2, 5 mM sodium phosphate buffer (pH 7.4). All washing experiments involving glioma cells utilized this salt solution as the wash medium. In experiments involving the glioma cells, specific (propranolol-displaceable) binding of (^125 I)-iodohydroxybenzylpindolol to C6 rat glioma cells was performed by the method developed by Terasaki et al (see above reference) with the exception that in all solutions phentolamine was omitted, and at the termination of the radioligand binding reaction, 0.1 mM (±)-propranololwas included in the cell wash solution.
In the study glioma cells were treated for 40 minutes with zero, 0.1 μM (Δ) or 1 μM aminobenzylpropranolol and then washed with salt solution for 3 hours at 37° C. After washing, the cells were treated for 20 minutes with ((-)-isoproterenol) and extracted with HCl to determine the amount of cyclic AMP. For all data points, n=3.

[4] = test system: rat atria (β-adrenergic receptors); assay: Isoproterenol-increased tension development in isolated rat atria; type: cell-based; details: for EC50: Rattus norvegicus, control rat atria, read-out: apparent KAct of isoproterenol
Experimental: (§1) For the tests atrial preparations were obtained by excising hearts from 200-250 g male Wistar rats or 300-400 g male Hartley guinea pigs. All of the animals were pretreated with reserpine (5 mg/kg) administered interperitoneally 15-18 hours before the animals were killed by a blow to the back of the neck. Left atria were maintained at 30° C. […] The buffer was vigorously bubbled with 95% O2 -5% CO2. Atria hooked to platinum-iridium electrodes were stimulated at 1 second intervals with 10 msec monophasic pulses at twice the threshold voltage for contractions. Developed tension was recorded on Beckman oscillographic recorders (Dynographs) and the signals processed by a DEC LSI-11 microcomputer. […] The inhibition is time and dose dependent. […] The cumulative dose response curves to (-)-isoproterenol were determined (n=2-3). At the termination of each experiment, maximum tension was determined by exposing atria to 100 μM isobutylmethylxanthine.

[5] = test system: guinea pig atria (β-adrenergic receptors); assay: Isoproterenol-increased tension development in isolated guinea pig atria; type: cell-based; details: for shift in cumulative isoproterenol dose response curve: guinea pig atria
Experimental: as §1

guinea pig atria = assay: Positive inotropic response of isolated guinea pig atria to histamine; type: cell-based; details: guinea pig atria pretreated with aminobenzylpropranolol
Experimental: Experiments were also conducted to determine the extent of aminobenzylpropranolol antagonism to isoproterenol-stimulated contractility in isolated atria. For the tests atrial preparations were obtained by excising hearts from 200-250 g male Wistar rats or 300-400 g male Hartley guinea pigs. All of the animals were pretreated with reserpine (5 mg/kg) administered interperitoneally 15-18 hours before the animals were killed by a blow to the back of the neck. Left atria were maintained at 30° C. (pH 7.4) in buffer containing: 118 mM NaCl, 4.75 mM KCl, 1.2 mM KH2 PO4, 1.2 mM MgSO4, 5.5 mM dextrose, 25 mM NaHCO3, and 1 mM CaCl2. The buffer was vigorously bubbled with 95% O2 -5% CO2. Atria hooked to platinum-iridium electrodes were stimulated at 1 second intervals with 10 msec monophasic pulses at twice the threshold voltage for contractions. Developed tension was recorded on Beckman oscillographic recorders (Dynographs) and the signals processed by a DEC LSI-11 microcomputer.
FIG. 4 contains the cumulative dose response curves to histamine treated atria (n=2-3).

[6] = test system: isolated atria (β-adrenergic receptors); assay: Contractility of isolated atria, species not distinguished; type: cell-based, rat or guinea pig
Experimental: as §1, with “isobutylmethylxanthine. […] The degree of inhibition was similar to that observed in glioma cells. […] (2) Efficacy was also assessed by using the phosphodiesterase inhibitor, isobutylmethylxanthine, which is able to elicit a maximal response by itself.” for “isobutylmethylxanthine.”

[7] = test system: β-adrenergic receptors of guinea pig taenia; details: receptors photolyzed with isoproterenol or 2-(2-hydroxy-3-isopropylaminopropoxy) iodobenzene; cited from earlier work
[8] = test system: cat papillary muscle (β-adrenergic receptors); details: cited from earlier work
[9] = 1 μM for 50 minutes prior to washing
[10] = blocked by N-[2-hydroxy-3-(1-naphthoxy)-propyl]-N-bromoacetylethylenediamine

CC(C)(Cc1ccc(O)c(I)c1)NCC(O)COc1cccc2[nH]ccc12 (stereo not shown) [(^125 I)-iodohydroxybenzylpindolol, reference compound]
Kd (β-adrenergic receptors [1]; glioma cells, not different between treated and control, read-out: equilibrium dissociation constant (KD) for (125I)-iodohydroxybenzylpindolol): 0.06 nM

CC(C)(Cc1ccc(N)cc1)NCC(O)COc1cccc2ccccc12 (stereo not drawn) [aminobenzylpropranolol, 1-(p-amino-α,α-dimethylphenethylamino)-3-(1-naphthoxy)-2-propanol]
Kd (β-adrenergic receptors [2]; 40 min at 37° C., corrected for competition by (125I)-iodohydroxybenzylpindolol, read-out: apparent KD in blocking one-half of the β-receptors): 8 nM | antagonist potency, displacing (125I)-iodohydroxybenzylpindolol from β-adrenergic receptors (β-adrenergic receptors [2]; intact living glioma cells): relatively potent β-adrenergic antagonist | ability to block β-adrenergic receptors assayed acutely (vs after washing) (β-adrenergic receptors [2]; washed repeatedly over 3 hours at 37° C.): no significant difference | effect on affinity of the remaining receptors for (125I)-iodohydroxybenzylpindolol (β-adrenergic receptors [1]; 80 nM, 40 minutes (37° C.), washed for 3 hours): not accomplished by a change in the affinity | inhibition at 0.08 µM (β-adrenergic receptors [1]; 40 min, 80 nM, 40 minutes (37° C.), washed for 3 hours, read-out: maximum binding capacity diminished): 70% | maximum receptor binding (FIG. 2) (β-adrenergic receptors [1]; treated then washed with salt solution): marked reduction | maximal attainable level of intracellular cyclic AMP ([3]; 0.1 μM and 1 μM): no change | increase of apparent activation constant for isoproterenol ([3]; 0.1 μM): 0.4 log units | increase of apparent activation constant for isoproterenol ([3]; 1 μM): 1.1 log units | increases in intracellular cyclic AMP in isoproterenol-treated glioma cells ([3]; only at submaximal concentrations of the catecholamine): inhibited | shift in cumulative isoproterenol dose response curve ([4]; 0.1 μM for 1 hour, rat atria): 0.5 log | fold increase in apparent KAct for isoproterenol ([4]; 1 μM for 5 minutes prior to washing): 1.2 fold | fold increase in apparent KAct for isoproterenol ([4]; 1 μM for 20 minutes prior to washing): 5.2 fold | fold increase in apparent KAct for isoproterenol [4, 9]: 13.5 fold | increase in apparent KAct for isoproterenol [4, 9]: 1.1 log units | rightward shift of isoproterenol dose response curves ([4]; 3 μM for 1 hour, washed 17 hours, 30° C.): 1.5 log units | decrease in inhibition of the isoproterenol response on extended washing ([4]; 3 μM for 1 hour, washed 17 hours, vs parallel washed control tissues): no detectable decrease | shift in cumulative isoproterenol dose response curve ([4]; 10 μM for 1 hour, rat atria): 2 log | onset of the inhibitory action ([4]; rat atria): slow | isoproterenol-increased tension development ([4]; time and dose dependent): inhibits | shift in cumulative isoproterenol dose response curve ([5]; 0.1 μM for 1 hour): 0.5 log | shift in cumulative isoproterenol dose response curve ([5]; 10 μM for 1 hour): 2 log | isoproterenol-increased tension development ([5]; time and dose dependent): inhibits | positive inotropic response to histamine (guinea pig atria): unaltered | sensitivity to isoproterenol of treated atria ([6]; 0.1 μM or 10 μM pretreatment, washed five times): decreased sensitivity to isoproterenol | inhibitory activity in medium transferred from treated, washed atrium to fresh atrium ([6]; after washing): no inhibitory activity | efficacy (maximum response) of isoproterenol in treated atria ([6]; aminobenzylpropranolol-treated atria): unchanged | reversal of blockage by high concentrations of isoproterenol ([6]; multiple washes and rechallenges): did not reverse the blockage | maximal level of tension development ([6]; pretreated with 0.1 μM isoproterenol, washed, then 10 μM aminobenzylpropranolol): remained the same

CC(C)Cn1c(=O)n(C)c(=O)c2[nH]cnc21 [isobutylmethylxanthine, reference compound]
increase in developed tension ([6]; 100 μM isobutylmethylxanthine added to atria treated with 10 μM isoproterenol): less than 5%

CC(C)NCC(O)c1ccc(O)c(O)c1 (stereo not shown) [isoproterenol, N-isopropylnoradrenaline, reference compound]
EC50 ([4]; first dose response curve): 0.9 nM | EC50 ([4]; second dose response curve): 4.7 nM | effect on tension in absence of inhibitor ([6]; 0.1 μM isoproterenol): maximally effective | desensitization on multiple exposures (decrease in potency for isoproterenol) ([6]; control atria, not pretreated with the inhibitor): small degree of desensitization | maximal relaxation by isoproterenol in photolyzed tissue [7]: maximal relaxation could still be elicited | potency of isoproterenol in photolyzed tissue [7]: potency was decreased | inotropic and cyclic AMP responses to isoproterenol after irreversible block [8, 10]: maximal | potency of isoproterenol after irreversible block [8, 10]: decreased potency

N-[2-hydroxy-3-(1-naphthoxy)-propyl]-N-bromoacetylethylenediamine
block of receptors ([8]; cat papillary muscle): irreversibly blocked
